# Columns and labels:
# Assay type in all cases: physicochemical
# [1] = Aqueous stability of the compound in 100 mM Na2HPO4 buffer assessed as half life at 2 mM at pH 7.2 at 37 degC by ferric chloride assay
# [2] = Aqueous stability of the compound in 100 mM Na2HPO4 buffer assessed as half life at 2 mM at pH 8.0 at 37 degC by ferric chloride assay
# [3] = Aqueous stability of the compound in 100 mM NaOH buffer at 2 mM at pH 12.7 at 37 degC by ferric chloride assay; conditions: pH 12.7, 2000 µM
# [4] = Aqueous stability of the compound in 100 mM HCl buffer assessed as half life at 2 mM at pH 1.5 at 37 degC by ferric chloride assay
# [5] = Aqueous stability of the compound in 100 mM Na2HPO4 buffer assessed as half life at 2 mM at pH 7.0 at 37 degC by ferric chloride assay
# [6] = Aqueous stability of the compound in 100 mM Na2HPO4 buffer assessed as half life at 2 mM at pH 6.6 at 37 degC by ferric chloride assay
# [7] = Aqueous stability of the compound in 100 mM Na2HPO4 buffer assessed as half life at 2 mM at pH 8.5 at 37 degC by ferric chloride assay
Structure (SMILES),half-life at 2000 µM [1] [h],half-life at 2000 µM [2] [min],Stability [3],half-life at 2000 µM [4] [h],half-life at 2000 µM [5] [h],half-life at 2000 µM [6] [h],half-life at 2000 µM [7] [h]
CC(=O)N(O)c1ccc(O)cc1,0.35,9.8,Stable,18.3,1.1,2.5,–
CC(=O)N(O)c1ccc(OS(=O)(=O)[O-])cc1.[K+],–,–,Stable,15.2,–,–,217
